Among the data in article PMC11619157, “Stephanine Protects Against Osteoporosis by Suppressing Osteoclastogenesis via Inhibition of the RANKL—RANK Interaction” (Journal of Cellular and Molecular Medicine, 2024) are Kd values, retold here.

The structures appear in SMILES notation.

One may read the Kd as a measure of binding affinity in units of concentration. A high value points to weaker binding.

The target in assay [1] is T1, RANKL (Homo sapiens, UniProt O14788).
T1 construct: gene TNFSF11; extracellular domain
T1 sequence (O14788 69-317 limits assumed): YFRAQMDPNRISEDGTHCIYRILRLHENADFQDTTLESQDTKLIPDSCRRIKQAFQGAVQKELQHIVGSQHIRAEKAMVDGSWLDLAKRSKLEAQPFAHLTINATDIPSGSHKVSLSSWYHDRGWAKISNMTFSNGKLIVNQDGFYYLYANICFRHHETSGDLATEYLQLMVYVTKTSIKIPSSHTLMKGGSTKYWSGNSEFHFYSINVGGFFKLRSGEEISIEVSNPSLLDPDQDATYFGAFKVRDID
In words: SPR kinetics (Biacore S200), RANKL amine-coupled on CM5 chip. Format: binding.

Assay [2] has as its target T2, RANK (Homo sapiens, UniProt Q9Y6Q6).
T2 construct: gene TNFRSF11A; extracellular domain
T2 sequence (Q9Y6Q6 30-212 limits assumed): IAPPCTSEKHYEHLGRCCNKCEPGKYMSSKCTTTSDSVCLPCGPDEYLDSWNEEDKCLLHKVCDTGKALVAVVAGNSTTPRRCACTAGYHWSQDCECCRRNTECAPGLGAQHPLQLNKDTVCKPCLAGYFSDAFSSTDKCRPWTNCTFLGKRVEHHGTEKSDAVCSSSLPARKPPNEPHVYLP
In words: SPR kinetics (Biacore S200), RANK amine-coupled on CM5 chip. The format is binding. On the technique in general: Surface plasmon resonance follows binding to a sensor surface in real time, without labels.

On to `COc1cccc2c1C[C@@H]1c3c(cc4c(c3-2)OCO4)CCN1C` [SA, Stephanine], for which the dissociation constant Kd in assay [1] is 76.5 µM; in assay [2] it was 3.7 µM.
